pIC50: −log10 of the molar value. Where a name gives a salt, the structure may show the parent alone. Read-outs that look alike come from different tables or passages of the source.
What was measured:
Format in all cases: biochemical
[1] = molecular target: T1, Full length human recombinant PIKFYVE (Homo sapiens, UniProt Q9Y2I7, L932S/Q1183K/Q995L/S1033A/S696N/T998S); assay: Inhibition of PIKfyve (microfluidic electrophoresis kinase assay)
T1 construct: Full length human recombinant PIKFYVE; purchased Carna Biosciences (Kobe, Japan); host or cells: baculovirus expression system (insect cells)
Description: Biological Example 1: Inhibition of PIKfyve
Full length human recombinant PIKFYVE expressed in baculovirus expression system as N-terminal GST-fusion protein (265 kDa) was obtained from Carna Biosciences (Kobe, Japan). The kinase substrate was prepared by mixing and sonicating fluorescently-labeled phosphatidylinositol 3-phosphate (PI3P) with phospho-L-serine (PS) at a 1:10 ratio in 50 mM HEPES buffer pH7.5.
The kinase reactions were assembled in 384-well plates (Greiner) in a total volume of […] as follows. Kinase protein was pre-diluted in an assay buffer comprising 25 mM HEPES, pH 7.5, 1 mM DTT, 2.5 mM MgCl2, and 2.5 mM MnCl2, and 0.005% Triton X-100, and dispensed into a 384-well plate (10 μL per well). Test compounds were serially pre-diluted in DMSO and added to the protein samples by acoustic dispensing (Labcyte Echo). The concentration of DMSO was equalized to 1% in all samples. All test compounds were tested at 12 concentrations. Apilimod was used as a reference compound and was tested in identical manner in each assay plate. Control samples (0%-inhibition, in the absence of inhibitor, DMSO only) and 100%-inhibition (in the absence of enzyme) were assembled in replicates of four and were used to calculate %-inhibition in the presence of compounds. The reactions were initiated by addition of 10 μL of 2× PI3P/PS substrate supplemented with ATP. The final concentration of enzyme was 2 nM, the final concentration of ATP was […], and the final concentration of PI3P/PS substrate was 1 μM (PI3P). The kinase reactions were allowed to proceed for 3 h at room temperature. Following incubation, the reactions were quenched by addition of […] of termination buffer (100 mM HEPES, pH 7.5, 0.01% Triton X-100, 20 mM EDTA). Terminated plates were analyzed on a microfluidic electrophoresis instrument (Caliper LabChip® 3000, Caliper Life Sciences/Perkin Elmer). The change in the relative fluorescence intensity of the PI(3)P substrate and PI(3,5)P product peaks was measured. The activity in each test sample was determined as the product to sum ratio (PSR): P/(S+P), where P is the peak height of the product, and S is the peak height of the substrate. Percent inhibition (Pinh) was determined using the following equation:
Pinh=(PSR0%inh−PSRcompound)/(PSR0%inh−P100%inh)*100
in which PSRcompound is the product/sum ratio in the presence of compound, PSR0%inh is the product/sum ratio in the absence of compound, and the PSR100%inh is the product/sum ratio in the absence of the enzyme. To determine the ICso of test compounds (50%-inhibition) the %-inh cdata (Pinh versus compound concentration) were fitted by a four-parameter sigmoid dose-response model using XLfit software (IDBS).

PI3Kα (p110α/p85α) = molecular target: T2, PI3Kα (p110α/p85α) (Homo sapiens, UniProt P42336)
T2 construct: Full-length N-terminal; FLAG (N); host or cells: SF9 cells (baculovirus)
T2 sequence (P42336 whole entry): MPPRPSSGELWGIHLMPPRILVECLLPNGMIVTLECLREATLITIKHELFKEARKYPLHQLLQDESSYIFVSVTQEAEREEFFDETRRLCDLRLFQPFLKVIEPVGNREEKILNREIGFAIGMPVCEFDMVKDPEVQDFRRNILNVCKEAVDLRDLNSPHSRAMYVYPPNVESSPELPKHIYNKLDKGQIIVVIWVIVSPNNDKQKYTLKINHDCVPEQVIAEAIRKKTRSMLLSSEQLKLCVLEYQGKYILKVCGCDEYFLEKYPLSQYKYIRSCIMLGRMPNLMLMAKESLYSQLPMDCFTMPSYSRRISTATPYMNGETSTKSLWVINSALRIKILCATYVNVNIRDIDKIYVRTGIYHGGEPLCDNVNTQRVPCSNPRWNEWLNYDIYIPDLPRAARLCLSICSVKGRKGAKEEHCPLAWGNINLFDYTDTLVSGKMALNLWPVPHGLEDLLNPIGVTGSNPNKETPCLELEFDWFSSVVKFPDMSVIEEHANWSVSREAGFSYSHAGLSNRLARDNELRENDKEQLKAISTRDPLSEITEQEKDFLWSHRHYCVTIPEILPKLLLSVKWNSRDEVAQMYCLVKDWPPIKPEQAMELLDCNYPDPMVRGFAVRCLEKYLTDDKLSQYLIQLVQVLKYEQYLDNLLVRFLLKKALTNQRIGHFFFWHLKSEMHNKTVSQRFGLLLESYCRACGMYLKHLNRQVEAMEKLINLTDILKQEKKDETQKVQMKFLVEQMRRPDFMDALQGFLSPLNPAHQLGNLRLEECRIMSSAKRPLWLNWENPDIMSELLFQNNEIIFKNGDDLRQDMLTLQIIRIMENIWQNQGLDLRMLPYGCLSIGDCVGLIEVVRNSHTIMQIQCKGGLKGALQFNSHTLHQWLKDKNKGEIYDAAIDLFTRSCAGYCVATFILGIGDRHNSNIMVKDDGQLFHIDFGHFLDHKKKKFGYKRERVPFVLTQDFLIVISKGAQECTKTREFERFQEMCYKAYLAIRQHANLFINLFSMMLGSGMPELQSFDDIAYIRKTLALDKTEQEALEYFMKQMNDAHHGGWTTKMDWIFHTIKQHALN
T2 sequence (P27986 whole entry, further chain): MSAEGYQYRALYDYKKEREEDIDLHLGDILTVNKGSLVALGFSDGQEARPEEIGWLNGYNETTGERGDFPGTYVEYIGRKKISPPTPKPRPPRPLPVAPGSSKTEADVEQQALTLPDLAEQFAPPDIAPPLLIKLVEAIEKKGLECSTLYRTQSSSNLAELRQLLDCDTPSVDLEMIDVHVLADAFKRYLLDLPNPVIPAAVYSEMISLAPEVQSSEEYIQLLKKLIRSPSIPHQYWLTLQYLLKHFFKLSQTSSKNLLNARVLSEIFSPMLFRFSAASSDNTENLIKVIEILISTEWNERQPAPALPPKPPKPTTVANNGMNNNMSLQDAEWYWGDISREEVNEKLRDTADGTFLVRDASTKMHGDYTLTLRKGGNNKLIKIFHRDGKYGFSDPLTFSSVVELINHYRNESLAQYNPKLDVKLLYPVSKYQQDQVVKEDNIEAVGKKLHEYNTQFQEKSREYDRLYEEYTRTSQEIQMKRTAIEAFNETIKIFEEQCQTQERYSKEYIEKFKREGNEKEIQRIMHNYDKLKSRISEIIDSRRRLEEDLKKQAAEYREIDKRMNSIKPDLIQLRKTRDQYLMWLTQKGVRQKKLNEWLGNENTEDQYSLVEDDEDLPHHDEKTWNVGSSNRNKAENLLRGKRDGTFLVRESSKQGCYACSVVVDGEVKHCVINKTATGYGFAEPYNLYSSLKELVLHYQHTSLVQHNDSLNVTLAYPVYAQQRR

PI3Kβ (p110β/p85α) = molecular target: T3, PI3Kβ (p110β/p85α) (Homo sapiens, UniProt P42338)
T3 construct: Full-length N-terminal GST-; GST (N); host or cells: SF9 cells (baculovirus)
T3 sequence (P42338 whole entry): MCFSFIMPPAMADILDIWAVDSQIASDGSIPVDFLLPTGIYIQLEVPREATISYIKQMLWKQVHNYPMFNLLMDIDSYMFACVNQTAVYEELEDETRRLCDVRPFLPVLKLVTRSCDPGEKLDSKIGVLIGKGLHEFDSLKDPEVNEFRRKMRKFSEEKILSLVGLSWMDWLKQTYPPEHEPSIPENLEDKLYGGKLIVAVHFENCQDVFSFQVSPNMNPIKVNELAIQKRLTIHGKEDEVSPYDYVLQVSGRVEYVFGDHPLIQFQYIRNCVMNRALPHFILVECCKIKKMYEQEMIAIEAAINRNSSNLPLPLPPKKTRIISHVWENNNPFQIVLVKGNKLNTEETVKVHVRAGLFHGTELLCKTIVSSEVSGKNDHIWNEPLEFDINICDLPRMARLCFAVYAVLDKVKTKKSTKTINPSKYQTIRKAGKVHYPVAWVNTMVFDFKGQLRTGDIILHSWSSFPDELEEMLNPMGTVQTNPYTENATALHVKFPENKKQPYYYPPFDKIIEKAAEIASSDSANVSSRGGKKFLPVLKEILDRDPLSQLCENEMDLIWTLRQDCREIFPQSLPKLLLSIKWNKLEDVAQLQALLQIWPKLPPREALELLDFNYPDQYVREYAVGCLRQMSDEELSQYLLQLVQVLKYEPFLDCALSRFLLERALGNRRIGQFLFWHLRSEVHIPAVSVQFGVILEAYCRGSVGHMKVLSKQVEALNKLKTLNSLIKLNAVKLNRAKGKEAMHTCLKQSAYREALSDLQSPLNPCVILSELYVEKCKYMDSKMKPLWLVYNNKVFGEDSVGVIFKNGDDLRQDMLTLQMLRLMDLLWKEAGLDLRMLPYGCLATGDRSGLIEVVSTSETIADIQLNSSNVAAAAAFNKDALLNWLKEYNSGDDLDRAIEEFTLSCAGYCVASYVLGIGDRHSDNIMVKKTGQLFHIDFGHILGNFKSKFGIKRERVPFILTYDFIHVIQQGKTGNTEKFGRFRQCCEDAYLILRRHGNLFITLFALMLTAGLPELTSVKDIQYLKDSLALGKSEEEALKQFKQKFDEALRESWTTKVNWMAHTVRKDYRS
T3 sequence (P27986 whole entry, further chain): as the sequence (P27986 whole entry, further chain) above

PI3Kδ (p110δ/p85α) = molecular target: T4, PI3Kδ (p110δ/p85α) (Homo sapiens, UniProt O00329)
T4 construct: Full-length N-terminal GST-; GST (N); host or cells: SF9 cells (baculovirus)
T4 sequence (O00329 whole entry): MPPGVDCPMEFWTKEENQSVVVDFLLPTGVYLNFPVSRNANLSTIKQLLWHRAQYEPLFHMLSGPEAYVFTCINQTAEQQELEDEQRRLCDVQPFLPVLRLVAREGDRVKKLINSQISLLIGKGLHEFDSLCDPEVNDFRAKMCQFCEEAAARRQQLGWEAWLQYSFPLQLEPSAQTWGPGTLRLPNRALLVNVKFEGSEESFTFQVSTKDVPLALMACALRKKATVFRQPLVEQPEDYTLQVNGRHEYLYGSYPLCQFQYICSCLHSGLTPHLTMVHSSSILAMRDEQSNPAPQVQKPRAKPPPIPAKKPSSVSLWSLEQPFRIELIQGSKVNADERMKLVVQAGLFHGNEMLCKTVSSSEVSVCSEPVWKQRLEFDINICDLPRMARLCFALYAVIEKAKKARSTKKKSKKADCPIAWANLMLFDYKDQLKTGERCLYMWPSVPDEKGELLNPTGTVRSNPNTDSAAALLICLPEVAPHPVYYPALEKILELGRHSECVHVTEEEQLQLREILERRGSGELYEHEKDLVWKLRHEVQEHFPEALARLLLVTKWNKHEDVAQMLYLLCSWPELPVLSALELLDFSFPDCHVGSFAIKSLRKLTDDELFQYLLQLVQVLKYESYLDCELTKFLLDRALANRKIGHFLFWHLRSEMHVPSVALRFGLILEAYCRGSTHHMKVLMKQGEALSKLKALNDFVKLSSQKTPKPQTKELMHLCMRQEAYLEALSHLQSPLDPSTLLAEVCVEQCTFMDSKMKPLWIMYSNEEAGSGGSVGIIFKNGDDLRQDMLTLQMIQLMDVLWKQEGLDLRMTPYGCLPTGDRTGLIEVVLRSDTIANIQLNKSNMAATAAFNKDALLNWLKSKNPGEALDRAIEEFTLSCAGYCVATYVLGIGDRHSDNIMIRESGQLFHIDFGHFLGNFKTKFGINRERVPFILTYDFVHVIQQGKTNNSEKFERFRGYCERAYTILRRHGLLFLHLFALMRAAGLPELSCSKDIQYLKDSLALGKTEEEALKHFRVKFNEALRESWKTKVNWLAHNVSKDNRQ
T4 sequence (P27986 whole entry, further chain): as the sequence (P27986 whole entry, further chain) above

[2] = 2 nM enzyme, 1 μM PI3P, 3 h at room temperature, 12 concentrations, read-out: PIKfyve IC50
[3] = 0.5 nM enzyme, ATP 90 μM, 1 μM PIP2, 3 h room temperature, read-out: PI3Kα IC50
[4] = 1 nM enzyme, ATP 60 μM, 1 μM PIP2, 3 h room temperature, read-out: PI3Kβ IC50
[5] = 0.25 nM enzyme, ATP 90 μM, 1 μM PIP2, 3 h room temperature, read-out: PI3Kδ IC50

SMILES	pIC50 [1, 2]	pIC50 (PI3Kα (p110α/p85α); [3])	pIC50 (PI3Kβ (p110β/p85α); [4])	pIC50 (PI3Kδ (p110δ/p85α); [5])	further results
c1cncc(Nc2nc(N3CCOCC3)c3oc4ncccc4c3n2)c1 [Example 39, 4-morpholino-N-(pyridin-3-yl)pyrido[3′,2′:4,5]furo[3,2-d]pyrimidin-2-amine]	5.66	7.09	6.43	7.22	–
Cn1ccnc1Nc1nc(N2CCOCC2)c2oc3ncccc3c2n1 [Example 12, N-(1-Methyl-1H-imidazol-2-yl)-4-morpholinopyrido[3′,2′:4,5]furo[3,2-d]pyrimidin-2-amine]	< 5.00	5.79	5.18	5.72	–
Cc1cncc(-c2cc(Nc3nc(N4CCOCC4)c4oc5ncccc5c4n3)[nH]n2)c1 [Example 32, N-(3-(5-methylpyridin-3-yl)-1H-pyrazol-5-yl)-4-morpholinopyrido[3′,2′:4,5]furo[3,2-d]pyrimidin-2-amine hydrochloride]	6.08	–	–	–	–
c1ccc(-c2cc(Nc3nc(N4CCOCC4)c4oc5nc(OCCN6CCOCC6)ccc5c4n3)[nH]n2)cc1 [Example 24, 4-morpholino-7-(2-morpholinoethoxy)-N-(3-phenyl-1H-pyrazol-5-yl)pyrido[3′,2′:4,5]furo[3,2-d]pyrimidin-2-amine hydrochloride]	7.21	–	–	–	–
FC(F)(F)Oc1cccc(-c2cc(Nc3nc(N4CCOCC4)c4oc5ncccc5c4n3)[nH]n2)c1 [Example 35, 4-morpholino-N-(3-(3-(trifluoromethoxy)phenyl)-1H-pyrazol-5-yl)pyrido[3′,2′:4,5]furo[3,2-d]pyrimidin-2-amine hydrochloride]	5.81	–	–	–	–
Fc1ccc(-c2cc(Nc3nc(N4CCOCC4)c4oc5ncccc5c4n3)[nH]n2)cc1 [Example 1, N-(3-(4-Fluorophenyl)-1H-pyrazol-5-yl)-4-morpholinopyrido[3′,2′:4,5]furo[3,2-d]pyrimidin-2-amine hydrochloride]	6.33	–	–	–	–
O=C(Nc1nc(N2CCOCC2)c2oc3ncccc3c2n1)Oc1ccccc1 [Example 22, phenyl(4-morpholinopyrido[3′,2′:4,5]furo[3,2-d]pyrimidin-2-yl)carbamate hydrochloride]	–	–	–	–	pIC50 [1]: 5.19; pIC50 (PI3Kα (p110α/p85α)): 6.10; pIC50 (PI3Kβ (p110β/p85α)): 5.57; pIC50 (PI3Kδ (p110δ/p85α)): 6.33
c1cnc2oc3c(N4CCOCC4)nc(Nc4cc(CC5CCC5)n[nH]4)nc3c2c1 [Example 56, N-(3-(cyclobutylmethyl)-1H-pyrazol-5-yl)-4-morpholinopyrido[3′,2′:4,5]furo[3,2-d]pyrimidin-2-amine hydrochloride]	5.75	7.33	6.03	7.62	–
c1ccc(-c2cc(Nc3nc(N4CCOCC4)c4oc5nc(OCCN6CCCC6)ccc5c4n3)[nH]n2)cc1 [Example 26, 4-morpholino-N-(3-phenyl-1H-pyrazol-5-yl)-7-(2-(pyrrolidin-1-yl)ethoxy)pyrido[3′,2′:4,5]furo[3,2-d]pyrimidin-2-amine hydrochloride]	7.09	–	–	–	–
Oc1ccc2c(n1)oc1c(N3CCOCC3)nc(Nc3cc(-c4ccccc4)n[nH]3)nc12 [Example 5, 4-Morpholino-2-((3-phenyl-1H-pyrazol-5-yl)amino)pyrido[3′,2′:4,5]furo[3,2-d]pyrimidin-7-ol hydrochloride]	7.77	–	–	–	–
c1ccc(-c2cc(Nc3nc(N4CCOCC4)c4oc5nc(OCCCN6CCOCC6)ccc5c4n3)[nH]n2)cc1 [Example 25, 4-morpholino-7-(3-morpholinopropoxy)-N-(3-phenyl-1H-pyrazol-5-yl)pyrido[3′,2′:4,5]furo[3,2-d]pyrimidin-2-amine hydrochloride]	7.85	–	–	–	–
c1cnc2oc3c(N4CCOCC4)nc(Nc4cc(C5CC5)n[nH]4)nc3c2c1 [Example 53, N-(3-cyclopropyl-1H-pyrazol-5-yl)-4-morpholinopyrido[3′,2′:4,5]furo[3,2-d]pyrimidin-2-amine hydrochloride]	5.68	–	–	–	–
CCc1cc(Nc2nc(N3CCOCC3)c3oc4ncccc4c3n2)[nH]n1 [Example 62, N-(3-ethyl-1H-pyrazol-5-yl)-4-morpholinopyrido[3′,2′:4,5]furo[3,2-d]pyrimidin-2-amine hydrochloride]	5.11	–	–	–	–
c1ccc(Nc2nc(N3CCOCC3)c3oc4ncccc4c3n2)nc1 [Example 40, 4-morpholino-N-(pyridin-2-yl)pyrido[3′,2′:4,5]furo[3,2-d]pyrimidin-2-amine]	5.56	6.99	5.92	7.18	–
c1cnc2oc3c(N4CCOCC4)nc(Nc4cc(C5CCC5)n[nH]4)nc3c2c1 [Example 55, N-(3-cyclobutyl-1H-pyrazol-5-yl)-4-morpholinopyrido[3′,2′:4,5]furo[3,2-d]pyrimidin-2-amine hydrochloride]	5.89	7.80	6.50	8.15	–
c1ccc(-c2cc(Nc3nc(N4CCOCC4)c4oc5nc(OCCCN6CCCC6)ccc5c4n3)[nH]n2)cc1 [Example 27, 4-morpholino-N-(3-phenyl-1H-pyrazol-5-yl)-7-(3-(pyrrolidin-1-yl)propoxy)pyrido[3′,2′:4,5]furo[3,2-d]pyrimidin-2-amine hydrochloride]	7.80	–	–	–	–
CC(C)c1cc(Nc2nc(N3CCOCC3)c3oc4ncccc4c3n2)[nH]n1 [Example 63, N-(3-isopropyl-1H-pyrazol-5-yl)-4-morpholinopyrido[3′,2′:4,5]furo[3,2-d]pyrimidin-2-amine hydrochloride]	5.73	–	–	–	–
c1cncc(-c2cc(Nc3nc(N4CCOCC4)c4oc5ncccc5c4n3)[nH]n2)c1 [Example 31, 4-morpholino-N-(3-(pyridin-3-yl)-1H-pyrazol-5-yl)pyrido[3′,2′:4,5]furo[3,2-d]pyrimidin-2-amine hydrochloride]	5.96	–	–	–	–
c1ccc(CCNc2nc(N3CCOCC3)c3oc4ncccc4c3n2)cc1 [Example 21, 4-morpholino-N-phenethylpyrido[3′,2′:4,5]furo[3,2-d]pyrimidin-2-amine]	6.01	6.80	6.61	7.43	–
C[C@H](Nc1nc(N2CCOCC2)c2oc3ncccc3c2n1)C1CC1 [Example 36, (S)-N-(1-cyclopropylethyl)-4-morpholinopyrido[3′,2′:4,5]furo[3,2-d]pyrimidin-2-amine]	< 5.00	7.11	6.13	7.11	–
c1cnc2oc3c(N4CCOCC4)nc(Nc4ccncc4)nc3c2c1 [Example 38, 4-morpholino-N-(pyridin-4-yl)pyrido[3′,2′:4,5]furo[3,2-d]pyrimidin-2-amine]	< 5.00	5.06	5.24	5.83	–
CN(C)CCCOc1ccc2c(n1)oc1c(N3CCOCC3)nc(Nc3cc(-c4ccccc4)n[nH]3)nc12 [Example 23, 7-(3-(dimethylamino)propoxy)-4-morpholino-N-(3-phenyl-1H-pyrazol-5-yl)pyrido[3′,2′:4,5]furo[3,2-d]pyrimidin-2-amine hydrochloride]	7.70	–	–	–	–
CN1CCN(CCOc2ccc3c(n2)oc2c(N4CCOCC4)nc(Nc4cc(-c5ccccc5)n[nH]4)nc23)CC1 [Example 28, 7-(2-(4-methylpiperazin-1-yl)ethoxy)-4-morpholino-N-(3-phenyl-1H-pyrazol-5-yl)pyrido[3′,2′:4,5]furo[3,2-d]pyrimidin-2-amine hydrochloride]	7.34	–	–	–	–
Cc1cc(Nc2nc(N3CCOCC3)c3oc4ncccc4c3n2)[nH]n1 [Example 8, N-(3-Methyl-1H-pyrazol-5-yl)-4-morpholinopyrido[3′,2′:4,5]furo[3,2-d]pyrimidin-2-amine]	5.66	6.79	6.51	7.62	–

— US20230038929A1, “Fused Tricyclic Heterocyclic Compounds and Uses Thereof” (Verge Analytics, Inc., priority 2019, published 2023)
